Measurements taken from the NIST ThermoML archive (doi:10.1016/j.fluid.2008.09.004).

How the values were obtained:
[1] = xn = mol fraction of the nth substance listed; conditions: 101 kPa, Liquid, Vibrating tube method
[2] = molar heat capacity at constant pressure; xn = mol fraction of the nth substance listed; conditions: 101 kPa, Liquid, Small sample (50 mg) DSC
[3] = excess molar enthalpy (molar enthalpy of mixing); xn = mol fraction of the nth substance listed; conditions: 303.15 K, 101 kPa, Liquid, Calvet calorimetry

CCOS(=O)(=O)[O-].CCn1cc[n+](C)c1 [1-ethyl-3-methylimidazolium ethyl sulfate] + CCO
Conditions	mass density, [1] [kg/m3]	molar heat capacity at constant pressure, [2] [J/K/mol]
293.15 K, x1 = 0.0157	813.7	114.9
293.15 K, x1 = 0.05	860	–
293.15 K, x1 = 0.0523	862.6	124.6
293.15 K, x1 = 0.0978	913.4	137.1
293.15 K, x1 = 0.0991	914.6	–
293.15 K, x1 = 0.1944	996	163.7
293.15 K, x1 = 0.3073	1063.7	194.6
293.15 K, x1 = 0.4109	1109.6	223.4
293.15 K, x1 = 0.5084	1143.2	250.8
293.15 K, x1 = 0.5927	1167	274.9
293.15 K, x1 = 0.6995	1191.8	305.4
293.15 K, x1 = 0.7883	1208.9	331.1
293.15 K, x1 = 0.8797	1223.9	357.4
293.15 K, x1 = 0.9388	1232.5	374.4
298.15 K, x1 = 0.0157	809.5	116.8
298.15 K, x1 = 0.05	855.9	–
298.15 K, x1 = 0.0523	858.5	126.2
298.15 K, x1 = 0.0978	909.4	138.5
298.15 K, x1 = 0.0991	910.6	–
298.15 K, x1 = 0.1944	992.1	165
298.15 K, x1 = 0.3073	1060	195.9
298.15 K, x1 = 0.4109	1105.9	224.8
298.15 K, x1 = 0.5084	1139.6	252.3
298.15 K, x1 = 0.5927	1163.4	276.5
298.15 K, x1 = 0.6995	1188.3	307.2
298.15 K, x1 = 0.7883	1205.4	333
298.15 K, x1 = 0.8797	1220.5	359.4
298.15 K, x1 = 0.9388	1229.1	376.5
303.15 K, x1 = 0.0157	805.3	118.6
303.15 K, x1 = 0.05	851.8	–
303.15 K, x1 = 0.0523	854.4	127.9
303.15 K, x1 = 0.0978	905.3	139.9
303.15 K, x1 = 0.0991	906.6	–
303.15 K, x1 = 0.1944	988.3	166.3
303.15 K, x1 = 0.3073	1056.3	197.2
303.15 K, x1 = 0.4109	1102.3	226.3
303.15 K, x1 = 0.5084	1136	254
303.15 K, x1 = 0.5927	1159.9	278.3
303.15 K, x1 = 0.6995	1184.8	309
303.15 K, x1 = 0.7883	1202	335
303.15 K, x1 = 0.8797	1217.1	361.6
303.15 K, x1 = 0.9388	1225.7	378.8
308.15 K, x1 = 0.0157	801	120.7
308.15 K, x1 = 0.05	847.7	–
308.15 K, x1 = 0.0523	850.3	129.7
308.15 K, x1 = 0.0978	901.3	141.6
308.15 K, x1 = 0.0991	902.6	–
308.15 K, x1 = 0.1944	984.4	167.7
308.15 K, x1 = 0.3073	1052.6	198.8
308.15 K, x1 = 0.4109	1098.7	227.9
308.15 K, x1 = 0.5084	1132.5	255.8
308.15 K, x1 = 0.5927	1156.4	280.3
308.15 K, x1 = 0.6995	1181.4	311.1
308.15 K, x1 = 0.7883	1198.5	337.2
308.15 K, x1 = 0.8797	1213.7	364
308.15 K, x1 = 0.9388	1222.3	381.3
313.15 K, x1 = 0.0157	796.7	122.8
313.15 K, x1 = 0.05	843.5	–
313.15 K, x1 = 0.0523	846.1	131.6
313.15 K, x1 = 0.0978	897.3	143.2
313.15 K, x1 = 0.0991	898.5	–
313.15 K, x1 = 0.1944	980.6	169.2
313.15 K, x1 = 0.3073	1048.8	200.4
313.15 K, x1 = 0.4109	1095	229.6
313.15 K, x1 = 0.5084	1128.9	257.6
313.15 K, x1 = 0.5927	1152.9	282.3
313.15 K, x1 = 0.6995	1177.9	313.3
313.15 K, x1 = 0.7883	1195.1	339.5
313.15 K, x1 = 0.8797	1210.2	366.5
313.15 K, x1 = 0.9388	1218.9	383.9
318.15 K, x1 = 0.0157	792.3	125
318.15 K, x1 = 0.05	839.2	–
318.15 K, x1 = 0.0523	841.9	133.6
318.15 K, x1 = 0.0978	893.2	145
318.15 K, x1 = 0.0991	894.4	–
318.15 K, x1 = 0.1944	976.6	170.9
318.15 K, x1 = 0.3073	1045.1	202.2
318.15 K, x1 = 0.4109	1091.4	231.5
318.15 K, x1 = 0.5084	1125.3	259.7
318.15 K, x1 = 0.5927	1149.3	284.5
318.15 K, x1 = 0.6995	1174.4	315.6
318.15 K, x1 = 0.7883	1191.7	342
318.15 K, x1 = 0.8797	1206.9	369.1
318.15 K, x1 = 0.9388	1215.5	386.7

[3]
Conditions	excess molar enthalpy [kcal/mol]
x1 = 0.0486	0.125
x1 = 0.1198	0.26
x1 = 0.1961	0.302
x1 = 0.2952	0.315
x1 = 0.3917	0.297
x1 = 0.4937	0.276
x1 = 0.6087	0.22
x1 = 0.7017	0.171
x1 = 0.7963	0.118
x1 = 0.8774	0.0731
